ChEMBL document CHEMBL5620394, “Synthesis of new antiproliferative 1,3,4-substituted-pyrrolo[3,2-c]quinoline derivatives, biological and in silico insights” (Eur J Med Chem, 2023)
Active and inactive are the calls of the source. The calls are words filed in the database; no cut-off is given here.

Assays:
[1] = Growth inhibition of human MCF-10A cells at 50 uM incubated for 24 to 48 hrs by cell counter analysis relative to control; format: toxicity, cell-based; details: time 24-48 hrs, read-out: GI
[2] = Growth inhibition of human MCF-10A cells at 25 uM incubated for 24 to 48 hrs by cell counter analysis relative to control; format: toxicity, cell-based; details: time 24-48 hrs, read-out: GI
[3] = Growth inhibition of human MCF-10A cells at 10 uM incubated for 72 hrs by cell counter analysis relative to control; format: toxicity, cell-based; details: read-out: GI
[4] = Growth inhibition of human MCF-10A cells at 10 uM incubated for 24 hrs by cell counter analysis relative to control; format: toxicity, cell-based; details: read-out: GI
[5] = system: MDA-MB-231; assay: Growth inhibition of human MDA-MB-231 cells at 50 uM incubated for 72 hrs by cell counter analysis relative to control; format: functional; details: read-out: GI
[6] = system: MCF7; assay: Growth inhibition of human MCF7 cells at 50 uM incubated for 72 hrs by cell counter analysis relative to control; format: functional; details: read-out: GI
[7] = system: MDA-MB-231; assay: Growth inhibition of human MDA-MB-231 cells at 50 uM incubated for 24 hrs by cell counter analysis relative to control; format: functional; details: read-out: GI
[8] = system: MCF7; assay: Growth inhibition of human MCF7 cells at 50 uM incubated for 24 hrs by cell counter analysis relative to control; format: functional; details: read-out: GI
[9] = system: MDA-MB-231; assay: Growth inhibition of human MDA-MB-231 cells at 25 uM incubated for 72 hrs by cell counter analysis relative to control; format: functional; details: read-out: GI
[10] = system: MCF7; assay: Growth inhibition of human MCF7 cells at 25 uM incubated for 72 hrs by cell counter analysis relative to control; format: functional; details: read-out: GI
[11] = system: MDA-MB-231; assay: Growth inhibition of human MDA-MB-231 cells at 25 uM incubated for 24 hrs by cell counter analysis relative to control; format: functional; details: read-out: GI
[12] = system: MCF7; assay: Growth inhibition of human MCF7 cells at 25 uM incubated for 24 hrs by cell counter analysis relative to control; format: functional; details: read-out: GI
[13] = system: MDA-MB-231; assay: Growth inhibition of human MDA-MB-231 cells at 10 uM incubated for 72 hrs by cell counter analysis relative to control; format: functional; details: read-out: GI
[14] = system: MCF7; assay: Growth inhibition of human MCF7 cells at 10 uM incubated for 72 hrs by cell counter analysis relative to control; format: functional; details: read-out: GI
[15] = system: MDA-MB-231; assay: Growth inhibition of human MDA-MB-231 cells at 10 uM incubated for 24 hrs by cell counter analysis relative to control; format: functional; details: read-out: GI
[16] = system: MCF7; assay: Growth inhibition of human MCF7 cells at 10 uM incubated for 24 hrs by cell counter analysis relative to control; format: functional; details: read-out: GI
[17] = system: MCF7; assay: Induction of apoptosis in human MCF7 cells assessed as increase in ROS production at 5 to 25 uM by H2DCFDA staining based flow cytometric analysis; format: functional, cell-based; details: dose 5-25 µM
[18] = system: MCF7; assay: Inhibition of colony formation in human MCF7 cells incubated for 72 hrs by crystal violet staining assay; format: functional, cell-based
[19] = system: MCF7; assay: Induction of cell cycle arrest in human MCF7 cells assessed as increase in accumulation of cells at G2/M phase at 10 to 25 uM incubated for 72 hrs by propidium iodide staining based flow cytometry analysis; format: functional; details: dose 10-25 µM
[20] = system: MCF7; assay: Induction of cell cycle arrest in human MCF7 cells assessed as increase in accumulation of cells at G2/M phase at 5 uM incubated for 72 hrs by propidium iodide staining based flow cytometry analysis; format: functional
[21] = system: MCF7; assay: Induction of cell cycle arrest in human MCF7 cells assessed as increase in accumulation of cells at S phase at 25 uM incubated for 72 hrs by propidium iodide staining based flow cytometry analysis; format: functional
[22] = system: MCF7; assay: Induction of cell cycle arrest in human MCF7 cells assessed as decrease in accumulation of cells at G0/G1 phase incubated for 72 hrs by propidium iodide staining based flow cytometry analysis; format: functional
[23] = system: MCF7; assay: Induction of cell cycle arrest in human MCF7 cells assessed as increase in accumulation of cells at sub-G1 phase at 10 uM incubated for 72 hrs by propidium iodide staining based flow cytometry analysis; format: functional
[24] = system: MCF7; assay: Induction of cell cycle arrest in human MCF7 cells assessed as increase in accumulation of cells at sub-G1 phase at 5 uM incubated for 72 hrs by propidium iodide staining based flow cytometry analysis; format: functional
[25] = system: K562; assay: Antiproliferative activity against human K562 cells assessed as cell growth at 10 uM incubated for 48 hrs by sulforhodamine B assay relative to control; format: functional; details: read-out: Activity
[26] = system: MOLT-4; assay: Antiproliferative activity against human MOLT-4 cells assessed as cell growth at 10 uM incubated for 48 hrs by sulforhodamine B assay relative to control; format: functional; details: read-out: Activity
[27] = system: RPMI-8226; assay: Antiproliferative activity against human RPMI-8226 cells assessed as cell growth at 10 uM incubated for 48 hrs by sulforhodamine B assay relative to control; format: functional; details: read-out: Activity
[28] = system: SR; assay: Antiproliferative activity against human SR cells assessed as cell growth at 10 uM incubated for 48 hrs by sulforhodamine B assay relative to control; format: functional; details: read-out: Activity
[29] = system: NCI-H226; assay: Antiproliferative activity against human NCI-H226 cells assessed as cell growth at 10 uM incubated for 48 hrs by sulforhodamine B assay relative to control; format: functional; details: read-out: Activity
[30] = system: NCI-H522; assay: Antiproliferative activity against human NCI-H522 cells assessed as cell growth at 10 uM incubated for 48 hrs by sulforhodamine B assay relative to control; format: functional; details: read-out: Activity
[31] = system: SNB-75; assay: Antiproliferative activity against human SNB-75 cells assessed as cell growth at 10 uM incubated for 48 hrs by sulforhodamine B assay relative to control; format: functional; details: read-out: Activity
[32] = system: UACC-257; assay: Antiproliferative activity against human UACC-257 cells assessed as cell growth at 10 uM incubated for 48 hrs by sulforhodamine B assay relative to control; format: functional; details: read-out: Activity
[33] = system: CAKI-1; assay: Antiproliferative activity against human CAKI-1 cells assessed as cell growth at 10 uM incubated for 48 hrs by sulforhodamine B assay relative to control; format: functional; details: read-out: Activity
[34] = system: UO-31; assay: Antiproliferative activity against human UO-31 cells assessed as cell growth at 10 uM incubated for 48 hrs by sulforhodamine B assay relative to control; format: functional; details: read-out: Activity
[35] = system: PC-3; assay: Antiproliferative activity against human PC-3 cells assessed as cell growth at 10 uM incubated for 48 hrs by sulforhodamine B assay relative to control; format: functional; details: read-out: Activity
[36] = system: MCF7; assay: Antiproliferative activity against human MCF7 cells assessed as cell growth at 10 uM incubated for 48 hrs by sulforhodamine B assay relative to control; format: functional; details: read-out: Activity
[37] = system: MDA-MB-231; assay: Antiproliferative activity against human MDA-MB-231 cells assessed as cell growth at 10 uM incubated for 48 hrs by sulforhodamine B assay relative to control; format: functional; details: read-out: Activity
[38] = system: T47D; assay: Antiproliferative activity against human T47D cells assessed as cell growth at 10 uM incubated for 48 hrs by sulforhodamine B assay relative to control; format: functional; details: read-out: Activity
[39] = system: A549; assay: Antiproliferative activity against human A549 cells assessed as cell growth at 10 uM incubated for 48 hrs by sulforhodamine B assay relative to control; format: functional; details: read-out: Activity
[40] = system: EKVX; assay: Antiproliferative activity against human EKVX cells assessed as cell growth at 10 uM incubated for 48 hrs by sulforhodamine B assay relative to control; format: functional; details: read-out: Activity
[41] = system: HOP-62; assay: Antiproliferative activity against human HOP-62 cells assessed as cell growth at 10 uM incubated for 48 hrs by sulforhodamine B assay relative to control; format: functional; details: read-out: Activity
[42] = system: HCT-116; assay: Antiproliferative activity against human HCT-116 cells assessed as cell growth at 10 uM incubated for 48 hrs by sulforhodamine B assay relative to control; format: functional; details: read-out: Activity
[43] = system: HCT-15; assay: Antiproliferative activity against human HCT-15 cells assessed as cell growth at 10 uM incubated for 48 hrs by sulforhodamine B assay relative to control; format: functional; details: read-out: Activity
[44] = system: KM12; assay: Antiproliferative activity against human KM12 cells assessed as cell growth at 10 uM incubated for 48 hrs by sulforhodamine B assay relative to control; format: functional; details: read-out: Activity
[45] = system: SF-295; assay: Antiproliferative activity against human SF-295 cells assessed as cell growth at 10 uM incubated for 48 hrs by sulforhodamine B assay relative to control; format: functional; details: read-out: Activity
[46] = system: MDA-MB-435; assay: Antiproliferative activity against human MDA-MB-435 cells assessed as cell growth at 10 uM incubated for 48 hrs by sulforhodamine B assay relative to control; format: functional; details: read-out: Activity
[47] = system: IGROV-1; assay: Antiproliferative activity against human IGROV-1 cells assessed as cell growth at 10 uM incubated for 48 hrs by sulforhodamine B assay relative to control; format: functional; details: read-out: Activity
[48] = system: SK-OV-3; assay: Antiproliferative activity against human SK-OV-3 cells assessed as cell growth at 10 uM incubated for 48 hrs by sulforhodamine B assay relative to control; format: functional; details: read-out: Activity
[49] = system: ACHN; assay: Antiproliferative activity against human ACHN cells assessed as cell growth at 10 uM incubated for 48 hrs by sulforhodamine B assay relative to control; format: functional; details: read-out: Activity
[50] = system: MDA-MB-468; assay: Antiproliferative activity against human MDA-MB-468 cells assessed as cell growth at 10 uM incubated for 48 hrs by sulforhodamine B assay relative to control; format: functional; details: read-out: Activity
[51] = system: LOX IMVI; assay: Antiproliferative activity against human LOX IMVI cells assessed as cell growth at 10 uM incubated for 48 hrs by sulforhodamine B assay relative to control; format: functional; details: read-out: Activity

## CC(=O)c1c(C)[nH]c2c1c(-c1ccc3c(c1)OCO3)nc1ccccc12
[1]
  inhibition at 50 µM: 63%
[2]
  inhibition at 25 µM: 42%
[3]
  inhibition at 72 h, 10 µM: 11%
[4]
  inhibition at 24 h, 10 µM: 14%
[5]
  inhibition of growth at 50 µM: 74%
[6]
  inhibition of growth at 50 µM: 70%
[7]
  inhibition of growth at 50 µM: 60%
[8]
  inhibition of growth at 50 µM: 54%
[9]
  inhibition of growth at 25 µM: 35%
[10]
  inhibition of growth at 25 µM: 41%
[11]
  inhibition of growth at 25 µM: 48%
[12]
  inhibition of growth at 25 µM: 38%
[13]
  inhibition of growth at 10 µM: 28%
[14]
  inhibition of growth at 10 µM: 25%
[15]
  inhibition of growth at 10 µM: 37%
[16]
  inhibition of growth at 10 µM: 32%
[17]
  Activity: Active
[18]
  inhibition: Dose-Dependent Effect
[19]
  Activity: Active
[20]
  Activity: inactive
[21]
  Activity: Active
[22]
  Activity: Dose-Dependent Effect
[23]
  Activity: Active
[24]
  Activity: Active
[25]
  growth at 10 µM: 76.8%
[26]
  growth at 10 µM: 107%
[27]
  growth at 10 µM: 90.3%
[28]
  growth at 10 µM: 31.6%
[29]
  growth at 10 µM: 65.6%
[30]
  growth at 10 µM: 101%
[31]
  growth at 10 µM: 46.5%
[32]
  growth at 10 µM: 73.9%
[33]
  growth at 10 µM: 58.9%
[34]
  growth at 10 µM: 26.4%
[35]
  growth at 10 µM: 75.8%
[36]
  growth at 10 µM: 41.5%
[37]
  growth at 10 µM: 82.2%
[38]
  growth at 10 µM: 70.3%
[39]
  growth at 10 µM: 81.7%
[40]
  growth at 10 µM: 88.3%
[41]
  growth at 10 µM: 67.5%
[42]
  growth at 10 µM: 84.3%
[43]
  growth at 10 µM: 69.5%
[44]
  growth at 10 µM: 74.6%
[45]
  growth at 10 µM: 91.1%
[46]
  growth at 10 µM: 42.1%
[47]
  growth at 10 µM: 60.1%
[48]
  growth at 10 µM: 88.8%
[49]
  growth at 10 µM: 92.4%
[50]
  growth at 10 µM: 59.5%
[51]
  growth at 10 µM: 86.5%
